Numbered stars: 1 amine (or outer) side, 2 acyl side, 3 side chain; on linkers, the order of the positions; unused ones are H or OH. Bridge positions count the residues as written; N and C are the ends. Square brackets hold non-standard residues; d marks the D form. Peptide text beside a SMILES is read from it. X1 = C#CCCC[C@H](O[*:2])C(C)(C)C(=O)[*:1]; Hmp(2R,3S) = CC[C@H](C)[C@@H](O)C(=O)O; NMeV = CN[C@H](C(=O)O)C(C)C
Assays:
[1] = Cytotoxicity against human H460 cells by SRB assay; format: functional, cell-based; settings: NCI-H460
[2] = Stability of the compound in DMSO by HPLC analysis; format: physicochemical
[3] = Cytotoxicity against human KB/VCR cells by SRB assay; format: functional, cell-based
KB = assay: Cytotoxicity against human KB cells by SRB assay; format: functional, cell-based
A549 = assay: Cytotoxicity against human A549 cells by SRB assay; format: functional, cell-based

## C#CCCC[C@@H]1OC(=O)[C@H]([C@@H](C)O)NC(=O)[C@H](C(C)C)N(C)C(=O)[C@@H]2CCCN2C(=O)[C@@H]([C@@H](C)CC)OC(=O)[C@H](C(C)C)N(C)C(=O)[C@H](C(C)C)NC(=O)C1(C)C [VIEQUEAMIDE A] (V[NMeV][Hmp(2R,3S)]P[NMeV]T; linker N-C via X1)
[1]
  IC50: < 100 µM
[2]
  Stability: Unstable
[3]
  IC50: < 100 µM
KB
  IC50: < 100 µM
A549
  IC50: < 100 µM

— ChEMBL document CHEMBL2375354, “Total synthesis of the marine cyclic depsipeptide viequeamide a” (J Nat Prod, 2013)
